From PubChem BioAssay (NCI)
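These data come from cells grown in 96-well plates and exposed to compound for 48 hours at five concentrations. GI50 marks 50% less growth. TGI denotes the concentration required for complete inhibition of growth.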

How the values were obtained:
Experiment in all cases: DTP human tumour cell line panel, 48 h
[1] = system: PC-3 prostate
[2] = system: A498 renal
[3] = system: OVCAR-5 ovarian
[4] = system: OVCAR-3 ovarian
[5] = system: SF-268 CNS
[6] = system: HT29 colon
[7] = system: SF-295 CNS
[8] = system: OVCAR-4 ovarian

For `[N-]=[N+]=NC(c1ccccc1)(c1ccccc1)c1ccccc1`, the TGI [1] was 29.4 µM, the TGI [2] was 31.9 µM and the TGI [3] was 30.1 µM. It also gave a TGI [4] of 42.5 µM, a TGI [5] of 35.7 µM and a TGI [6] of 32.6 µM. The TGI [7] was 27.1 µM and the TGI [8] was 57.9 µM.

`CC(C)=CCC[C@@H](C)c1c(O)c(O)c(C)c2nccnc12` was tested, and the TGI [1] was > 100 µM, the TGI [2] was > 86.1 µM and the TGI [3] was > 100 µM. For the same molecule, the TGI [4] was > 100 µM, the TGI [5] was > 100 µM and the TGI [6] was > 65.6 µM. For the same molecule, the TGI [7] was > 71.2 µM and the TGI [8] was > 100 µM.

With `Cc1ccnc(NS(=O)(=O)c2ccc(N=[N+]=[N-])cc2)n1` the TGI [1] was > 100 µM, the TGI [2] was > 100 µM and the TGI [3] was > 100 µM. For the same molecule, the TGI [4] was > 100 µM, the TGI [5] was > 100 µM and the TGI [6] was > 100 µM. For the same molecule, the TGI [7] was > 100 µM and the TGI [8] was > 100 µM.

With `Nc1nc2c(c(-c3cccc(Cl)c3)n1)COC/C2=C\c1cccc(Cl)c1` the TGI [1] was > 100 µM, the TGI [2] was > 100 µM and the TGI [3] was > 100 µM. For the same molecule, the TGI [4] was > 100 µM, the TGI [5] was > 100 µM and the TGI [6] was > 100 µM. For the same molecule, the TGI [7] was > 100 µM and the TGI [8] was > 100 µM.

For `C#CCn1c(=O)c2ccccc2n(CC#C)c1=O`, the TGI [1] was > 10 µM, the TGI [2] was > 10 µM and the TGI [3] was > 10 µM. The TGI [4] was > 10 µM, the TGI [5] was > 10 µM and the TGI [6] was > 10 µM. For the same molecule, the TGI [7] was > 10 µM and the TGI [8] was > 10 µM.

For `Oc1ccccc1CNCc1nc2ccccc2[nH]1`, the TGI [1] was > 100 µM, the TGI [2] was > 100 µM and the TGI [3] was > 100 µM. The TGI [4] was > 100 µM, the TGI [5] was > 100 µM and the TGI [6] was > 100 µM. The TGI [7] was > 100 µM and the TGI [8] was > 100 µM.

With `CCOC(=O)Nc1sc2c(c1C#N)CCCC2` the TGI [1] was > 100 µM, the TGI [2] was > 100 µM and the TGI [3] was > 100 µM. The TGI [4] was > 100 µM, the TGI [5] was > 100 µM and the TGI [6] was > 100 µM. The TGI [7] was > 100 µM and the TGI [8] was > 100 µM.

For `Nn1c(-c2ccccc2)n[nH]c1=O`, the TGI [1] was > 100 µM, the TGI [2] was > 100 µM and the TGI [3] was > 100 µM. The TGI [4] was > 100 µM, the TGI [5] was > 100 µM and the TGI [6] was > 100 µM. For the same molecule, the TGI [7] was > 100 µM and the TGI [8] was > 100 µM.

`O=C1c2cc3c(cc2-c2c1c1ccc(F)cc1c(=O)n2C[C@H](O)[C@@H](O)[C@H](O)CO)OCO3` was tested, and the GI50 [1] was 0.205 µM, the TGI [1] was > 100 µM and the GI50 [2] was 0.12 µM. For the same molecule, the TGI [2] was 0.262 µM, the GI50 [3] was 0.222 µM and the TGI [3] was 0.782 µM. It also gave a GI50 [4] of 0.0989 µM, a TGI [4] of 0.476 µM and a GI50 [8] of 0.185 µM. It also gave a TGI [8] of 0.874 µM.

With `Nn1c(Nc2ccc(S(=O)(=O)Nc3ncccn3)cc2)nnc(/C=C/c2c(O)ccc3ccccc23)c1=O` the TGI [1] was > 100 µM, the TGI [2] was 72.4 µM and the TGI [3] was 91.9 µM. The TGI [4] was 55.9 µM, the TGI [5] was > 100 µM and the TGI [6] was > 100 µM. The TGI [8] was > 100 µM.

`COc1ncc(/C=C2\OC(=O)c3ccccc32)c(OC)n1` was tested, and the TGI [1] was > 100 µM, the TGI [2] was > 100 µM and the TGI [3] was > 100 µM. The TGI [4] was > 100 µM, the TGI [5] was > 100 µM and the TGI [6] was > 100 µM. The TGI [7] was > 100 µM.

With `CC1(C(=O)O)CCC2(C)CCC3(C)C(=CC(=O)C4C5(C)CCC(O)C(C)(C)C5CCC43C)C2C1` (centres undefined) the TGI [1] was > 100 µM, the TGI [3] was 82.9 µM and the TGI [4] was 37.4 µM. It also gave a TGI [5] of 67.4 µM, a TGI [6] of 38.7 µM and a TGI [7] of 70.1 µM. For the same molecule, the TGI [8] was > 100 µM.

For `CC(=O)N1C(C(=O)NC2CCCCC2)CSC1c1ccccc1` (centres undefined), the TGI [1] was > 100 µM, the TGI [2] was > 100 µM and the TGI [3] was > 100 µM. For the same molecule, the TGI [4] was > 100 µM, the TGI [5] was > 100 µM and the TGI [6] was > 100 µM. The TGI [7] was > 100 µM and the TGI [8] was > 100 µM.

`CCN(CC)CCNC(=O)c1cc2cc(NC(=O)c3cc4cc([N+](=O)[O-])ccc4[nH]3)ccc2[nH]1` was tested, and the TGI [1] was > 100 µM, the TGI [2] was > 82.7 µM and the TGI [3] was > 100 µM. The TGI [4] was > 57 µM, the TGI [5] was > 100 µM and the TGI [6] was > 100 µM. The TGI [7] was 65.6 µM and the TGI [8] was > 100 µM.

For `C=CC1(CC/C(=C\[N+](=O)[O-])c2ccc(OC)c(OC)c2)OCC(C)(C)CO1`, the TGI [1] was 57 µM, the TGI [3] was 35.2 µM and the TGI [4] was 39.8 µM. It also gave a TGI [5] of 39.1 µM, a TGI [6] of 97.8 µM and a TGI [7] of 53.1 µM. The TGI [8] was 31.5 µM.

`CCC(=O)NC(Nc1cc(C)on1)(C(F)(F)F)C(F)(F)F` was tested, and the TGI [2] was > 100 µM, the TGI [3] was > 100 µM and the TGI [4] was > 100 µM. The TGI [5] was > 100 µM and the TGI [6] was > 100 µM.

`CCOP(=O)(OCC)C(F)(F)c1ccc(CC(NC(=O)OC(C)(C)C)C(=O)O)cc1` (centres undefined) was tested, and the TGI [1] was > 10 µM, the TGI [2] was > 10 µM and the TGI [3] was > 10 µM. The TGI [4] was > 10 µM, the TGI [5] was > 10 µM and the TGI [6] was > 10 µM. For the same molecule, the TGI [7] was > 10 µM and the TGI [8] was > 10 µM.

In the case of `O=[N+]([O-])c1ccc2[nH]nc(OCc3ccccc3Cl)c2c1`, the TGI [1] is reported as > 100 µM, the TGI [2] is reported as > 100 µM and the TGI [3] is reported as > 100 µM. For the same molecule, the TGI [4] was 73.9 µM, the TGI [5] was > 100 µM and the TGI [6] was > 100 µM. For the same molecule, the TGI [7] was > 100 µM and the TGI [8] was > 100 µM.

In the case of `Cc1ccc(-c2csc(=Nc3ccccc3)n2NC(=O)c2ccncc2)cc1`, the TGI [1] is reported as > 100 µM, the TGI [2] is reported as > 100 µM and the TGI [3] is reported as > 100 µM. The TGI [4] was > 100 µM, the TGI [5] was > 100 µM and the TGI [6] was 60 µM. The TGI [7] was 74.9 µM and the TGI [8] was > 100 µM.

For `O=C(C1OC1c1ccc(Br)cc1O)C12CC3CC(CC(C3)C1)C2` (centres undefined), the TGI [1] was 58.7 µM, the TGI [2] was > 100 µM and the TGI [3] was > 100 µM. The TGI [4] was 84.6 µM, the TGI [5] was > 100 µM and the TGI [6] was > 100 µM. The TGI [7] was 43 µM and the TGI [8] was 81.4 µM.

`CC(C)c1cc2c(cc1S(=O)(=O)O)[C@@]1(C)CCC[C@@](C)(C(=O)O)C1CC2` (some centres undefined) was tested, and the TGI [1] was > 100 µM, the TGI [2] was > 100 µM and the TGI [3] was > 100 µM. The TGI [4] was > 100 µM, the TGI [5] was > 100 µM and the TGI [6] was > 100 µM. The TGI [7] was > 100 µM and the TGI [8] was > 100 µM.

With `O=C(N/N=C/c1ccc(Cl)cc1)c1c(Cl)c(Cl)c(Cl)c(Cl)c1-c1nc2ccccc2[nH]1` the TGI [1] was > 100 µM, the TGI [2] was > 100 µM and the TGI [3] was > 100 µM. The TGI [4] was > 100 µM, the TGI [5] was > 100 µM and the TGI [6] was > 100 µM. For the same molecule, the TGI [7] was > 100 µM.

For `COc1nncc2[nH]c(-c3ccccc3)cc12`, the TGI [1] was > 100 µM, the TGI [2] was > 100 µM and the TGI [3] was > 100 µM. For the same molecule, the TGI [4] was > 100 µM, the TGI [5] was > 100 µM and the TGI [6] was > 100 µM. The TGI [7] was > 100 µM and the TGI [8] was > 100 µM.

For `C/C(=C\CBr)CCC(Br)C(C)(C)Br` (centres undefined), the TGI [1] was > 100 µM, the TGI [2] was > 100 µM and the TGI [3] was > 100 µM. The TGI [4] was > 100 µM, the TGI [5] was > 100 µM and the TGI [6] was > 100 µM. For the same molecule, the TGI [7] was > 100 µM and the TGI [8] was > 100 µM.

For `Cn1c2ccc3cc2c(=S)c2cc(ccc21)OCCOCCOCCOCCOCCOCCO3`, the TGI [1] was > 10 µM, the TGI [2] was > 10 µM and the TGI [3] was > 10 µM. For the same molecule, the TGI [4] was > 10 µM, the TGI [5] was > 10 µM and the TGI [6] was > 10 µM. The TGI [7] was > 10 µM and the TGI [8] was > 10 µM.
